A short description of data set [1]: Pharmacokinetics after tail vein injection. It is filed as in vivo, CD-1 mice. Conditions: iv, 0.2 mg/kg. How it is done:
Male CD-1 mice weighing 30-35 g were selected, and a test compound was injected into the tail vein at 0.2 mg/kg. Plasma samples were collected at 5, 15, 30, and 60 min and 2, 4, 8, and 24 h after administration and processed accordingly. The drug content was analyzed by LC-MS/MS.
Among them, compounds 20, 21 and 22 were compounds formed by chelating nonradioactive in with compounds 11, 14 and 16, respectively.

Data set [2] addresses T1, human recombinant FAP protein (Homo sapiens, UniProt Q12884).
T1 construct: purchased Acrobiosystems FAP-H82Q6
T1 sequence (Q12884 1-760): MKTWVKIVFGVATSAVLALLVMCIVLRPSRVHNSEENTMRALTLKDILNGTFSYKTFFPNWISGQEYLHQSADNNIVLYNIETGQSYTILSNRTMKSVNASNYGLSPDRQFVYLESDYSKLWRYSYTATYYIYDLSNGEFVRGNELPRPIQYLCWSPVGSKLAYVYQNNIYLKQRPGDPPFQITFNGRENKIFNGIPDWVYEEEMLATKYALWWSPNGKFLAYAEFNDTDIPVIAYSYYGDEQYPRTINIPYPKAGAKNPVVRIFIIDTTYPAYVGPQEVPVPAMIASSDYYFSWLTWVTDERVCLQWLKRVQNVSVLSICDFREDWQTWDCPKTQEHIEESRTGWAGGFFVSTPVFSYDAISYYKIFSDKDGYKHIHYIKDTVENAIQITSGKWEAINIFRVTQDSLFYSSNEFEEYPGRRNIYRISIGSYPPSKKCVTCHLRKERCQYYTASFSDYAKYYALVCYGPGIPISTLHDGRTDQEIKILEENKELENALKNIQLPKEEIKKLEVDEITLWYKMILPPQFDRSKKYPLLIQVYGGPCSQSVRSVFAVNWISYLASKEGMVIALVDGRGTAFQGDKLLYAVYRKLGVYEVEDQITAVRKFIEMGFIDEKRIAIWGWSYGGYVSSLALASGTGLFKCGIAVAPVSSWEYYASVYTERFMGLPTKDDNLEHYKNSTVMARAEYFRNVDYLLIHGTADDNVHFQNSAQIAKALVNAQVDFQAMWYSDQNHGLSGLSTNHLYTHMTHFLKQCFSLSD
Put plainly: Inhibitory activity against FAP protease activity (Z-Gly-Pro-AMC fluorescence). It is filed as biochemical. Conditions: 125 pM FAP working solution, 90 min at room temperature; read-out: FAP IC50. How it is done: The human recombinant FAP protein (Acrobiosystems, FAP-H82Q6) was diluted to a 125 pM FAP working solution with an assay buffer (50 mM Tris-HCl, 1 M NaCl, 1 mg/mL BSA, pH 7.5), and the FAP substrate (Z-Gly-Pro-AMC (LEONBIO, 68542-93-8)) was diluted to a 150 µM substrate working solution with the assay buffer. 40 µl of FAP working solution and 20 µl of compounds at different concentrations (4-fold dilution) were taken, then 40 µl of substrate working solution was added, and the mixture was uniformly mixed on a shaker at room temperature for 1 min. The uniformly mixed mixture was reacted at room temperature in the dark for 90 min. The fluorescence value Ex = 380 nm/Em = 460 nm was read by using a microplate reader. The original data was saved, and the IC50 value of the compound was obtained by using the original data or the Inhibition% via calculation and analyzing the data with Graphpad PRISM.

The target of data set [3] is T2, human recombinant DPP4 protein (Homo sapiens, UniProt P27487).
T2 construct: purchased Acrobiosystems DP4-H5211
Put plainly: Inhibitory activity against DPP4 protease activity (H-Gly-Pro-AMC fluorescence). It is filed as biochemical. Particulars: 125 pM DPP4 working solution, 90 min at room temperature. How it is done:
The human recombinant DPP4 protein (Acrobiosystems, DP4-H5211) was formulated into a 125 pM working solution with an assay buffer (20 mM Tris-HCl, 100 mM NaCl), and the DPP4 substrate (H-Gly-Pro-AMC.HBr (LEONBIO, 115035-46-6)) was diluted to a 250 µM DPP4 substrate working solution with the assay buffer. 40 µl of DPP4 working solution and 20 µl of compounds at different concentrations (4-fold dilution) were taken, then 40 µl of DPP4 substrate working solution was added, and the mixture was uniformly mixed on a shaker at room temperature for 1 min. The uniformly mixed mixture was reacted at room temperature in the dark for 90 min. Reading was made by microplate reader at excitation and emission wavelengths of 380 nm and 460 nm. The original data was saved, and the IC50 value of the compound was obtained by analyzing the data with Graphpad PRISM.

Data set [4] deals with HEK293-FAP cells. Kind of data set: Distribution in tissues of HEK293-FAP tumor-bearing mice (gamma counter). Format: in vivo, SCID mice. Particulars: 100 µCi, SCID mice with HEK293-FAP tumor. As for the experimental part: Male SCID mice (6-8 weeks old) were subcutaneously inoculated with 5 × 10^6 HEK293-FAP cells (FAP was highly expressed in HEK293 cells). 10 days later, 30 mice with tumor size of 200-300 mm^3 were randomly divided into 3 groups. Each mouse in the 3 groups was administered with compound ^177Lu-3BP-3554, compound 29 and compound 30 with a radiation dose of 100 µCi, respectively. Blood, kidney and tumor tissues were collected at time points of 4 h, 8 h, 24 h, 72 h and 168 h, and all blood samples and tissue samples were measured for radioactive counts by gamma counter.

Read-outs that look alike come from different tables or passages of the source. Numbered stars: 1 amine (or outer) side, 2 acyl side, 3 side chain; on linkers, the order of the positions; unused ones are H or OH. Bridge positions count the residues as written; N and C are the ends. Square brackets hold non-standard residues; d marks the D form. Peptide text beside a SMILES is read from it. * marks the point of attachment. X1 = O=C(O)CN1CCN(CC(=O)O)CCN(CC(=O)NCCSCc2cc(CSC[C@@H](CNC(=O)C3CCCC3)N[*:2])cc(C[*:1])c2)CCN(CC(=O)O)CC1; TBMB(SCH2CH2NH-DOTA) = O=C(O)CN1CCN(CC(=O)O)CCN(CC(=O)NCCSCc2cc(C[*:1])cc(C[*:2])c2)CCN(CC(=O)O)CC1; 1Nal = N[C@@H](Cc1cccc2ccccc12)C(=O)O; mXylylene = c1cc(C[*:1])cc(C[*:2])c1; NH(4-picolyl) = c1cc(CN*)ccn1; β3hC = N[C@@H](CS)CC(=O)O; Nle = CCCC[C@H](N)C(=O)O; Hexanoyl = CCCCCC(=O)*; NHPh = c1ccc(N*)cc1; X3 = C1C2CC1(N*)C2; X2 = C1CCC(CN*)C1 Some results are limits rather than exact numbers.

By Cmax is commonly meant the maximum level reached in the sampled fluid or tissue. The term IC50 denotes the concentration needed to halve the response being measured.

T2 sequence (P27487 whole entry): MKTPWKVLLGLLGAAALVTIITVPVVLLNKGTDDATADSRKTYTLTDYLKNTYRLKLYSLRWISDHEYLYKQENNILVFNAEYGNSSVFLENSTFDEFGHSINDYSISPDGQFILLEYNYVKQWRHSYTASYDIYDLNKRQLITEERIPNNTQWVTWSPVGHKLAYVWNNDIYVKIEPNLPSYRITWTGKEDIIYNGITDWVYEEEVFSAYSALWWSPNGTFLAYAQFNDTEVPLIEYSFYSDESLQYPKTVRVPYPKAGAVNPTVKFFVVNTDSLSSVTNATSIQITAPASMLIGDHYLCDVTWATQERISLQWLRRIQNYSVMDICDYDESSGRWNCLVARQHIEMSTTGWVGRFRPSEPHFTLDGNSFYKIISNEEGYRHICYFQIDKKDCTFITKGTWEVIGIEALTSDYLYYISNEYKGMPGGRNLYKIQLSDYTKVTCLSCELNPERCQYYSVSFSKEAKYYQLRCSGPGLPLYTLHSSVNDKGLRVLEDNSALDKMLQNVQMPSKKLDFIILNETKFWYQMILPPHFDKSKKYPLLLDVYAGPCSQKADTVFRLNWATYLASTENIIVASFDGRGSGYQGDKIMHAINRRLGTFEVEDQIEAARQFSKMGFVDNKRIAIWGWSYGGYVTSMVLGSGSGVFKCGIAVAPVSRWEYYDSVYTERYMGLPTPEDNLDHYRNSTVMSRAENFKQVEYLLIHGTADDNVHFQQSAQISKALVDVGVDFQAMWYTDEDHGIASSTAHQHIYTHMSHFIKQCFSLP

Consider `CCCCCC(=O)N[C@H]1CSCc2cc(CSCCNC(=O)CN3CCN(CC(=O)O)CCN(CC(=O)O)CCN(CC(=O)O)CC3)cc(c2)CSC[C@@H](C(=O)O)NC(=O)[C@H](Cc2ccccc2)NC(=O)[C@H](CCC(N)=O)NC(=O)[C@H]([C@@H](C)O)NC(=O)[C@@H]2CCCN2C(=O)[C@@H]2CCCN2C1=O` [Compound 3BP-3623, reference compound], for which, in data set [1] (mouse, plasma, male CD-1 mice, tail vein, read-out: AUC0-t), the AUC(0-t) turned out to be 195 ng·h/mL. Besides, in data set [1] (mouse, plasma, male CD-1 mice, tail vein, read-out: Cl (converted)), the clearance is 17 mL/min/kg. The Cmax in data set [1] (mouse, plasma, male CD-1 mice, tail vein, read-out: Cmax) turned out to be 594 ng/mL. For the same compound, in data set [1] (mouse, plasma, male CD-1 mice, tail vein, read-out: T1/2 (converted)), the half-life was 0.37 h. The Vd in data set [1] (mouse, plasma, male CD-1 mice, tail vein, read-out: Vss) came out at 0.24 L/kg.
`CCCCCC(=O)N[C@H]1CSCc2cc(CSCCNC(=O)CN3CCN(CC(=O)O)CCN(CC(=O)O)CCN(CC(=O)O)CC3)cc(c2)CSC[C@@H](CC(=O)O)NC(=O)[C@H](Cc2cccc3ccccc23)NC(=O)[C@H](CCC(N)=O)NC(=O)[C@H]([C@@H](C)O)NC(=O)[C@@H]2CCCN2C(=O)[C@@H]2CCCN2C1=O` [Compound 20] (Hexanoyl-CPPTQ[1Nal][β3hC]-OH; linker 1-7 via TBMB(SCH2CH2NH-DOTA)): in data set [1] (male, CD-1, mouse, in vivo), the AUC(0-t) turned out to be 308 ng·h/mL, the peak level (Cmax) was 772 ng/mL, the Vd was determined as 0.52 L/kg and the clearance was 10.2 mL/min/kg. In data set [1] (male, CD-1, mouse, in vivo), this compound gave a half-life of 1.63 h.
In the same order, the values of `CCCCCC(=O)N[C@H]1CSCc2cc(CSCCNC(=O)CN3CCN(CC(=O)O)CCN(CC(=O)O)CCN(CC(=O)O)CC3)cc(c2)CSC[C@@H](CNC(=O)C2CCCC2)NC(=O)[C@H](Cc2ccccc2)NC(=O)[C@H](CCC(N)=O)NC(=O)[C@H]([C@@H](C)O)NC(=O)[C@@H]2CCCN2C(=O)[C@@H]2CCCN2C1=O` [Compound 21] (Hexanoyl-CPPTQF; linker 1-C via X1) are 634 ng·h/mL, 1010 ng/mL, 0.22 L/kg, 5.17 mL/min/kg and 1.26 h.
In data set [1] (male, CD-1, mouse, in vivo), `CCCCCC(=O)N[C@H]1CSCc2cccc(c2F)CSC[C@@H](CNC(=O)C[C@@H](C)NC(=O)[C@H]2CC[C@H](CNC(=O)CN3CCN(CC(=O)O)CCN(CC(=O)O)CCN(CC(=O)O)CC3)CC2)NC(=O)[C@H](Cc2ccccc2)NC(=O)[C@H](CCC(N)=O)NC(=O)[C@H]([C@@H](C)O)NC(=O)[C@@H]2CCCN2C(=O)[C@@H]2CCCN2C1=O` [Compound 22] gave an AUC(0-t) of 740 ng·h/mL, a maximum concentration (Cmax) of 1120 ng/mL, a Vd of 1.18 L/kg and a clearance of 4.33 mL/min/kg. Also, the half-life in data set [1] (male, CD-1, mouse, in vivo) is 7.93 h.
Consider `CCCCCC(=O)N[C@H]1CSCc2cccc(c2)CSC[C@@H](CC(=O)NCC2CCCC2)NC(=O)[C@H](Cc2cccc3ccccc23)NC(=O)[C@H](CCC(N)=O)NC(=O)[C@H]([C@@H](C)O)NC(=O)[C@@H]2CCCN2C(=O)[C@@H]2CCCN2C1=O` [Compound 35] (Hexanoyl-CPPTQ[1Nal][β3hC]-X2; linker 1-7 via mXylylene), for which the figures for the IC50 in data set [2] and in data set [3] were 6.62 nM and more than 10000 nM, respectively.
For `CCCCCC(=O)N[C@H]1CSCc2cccc(c2)CSC[C@@H](CC(=O)Nc2ccccc2)NC(=O)[C@H](Cc2cccc3ccccc23)NC(=O)[C@H](CCC(N)=O)NC(=O)[C@H]([C@@H](C)O)NC(=O)[C@@H]2CCCN2C(=O)[C@@H]2CCCN2C1=O` [Compound 36] (Hexanoyl-CPPTQ[1Nal][β3hC]-NHPh; linker 1-7 via mXylylene) the same measures were 4.18 nM and more than 10000 nM.
In the same order, the values of `CCCCCC(=O)N[C@H]1CSCc2cccc(c2)CSC[C@@H](CC(=O)NCc2ccncc2)NC(=O)[C@H](Cc2cccc3ccccc23)NC(=O)[C@H](CCC(N)=O)NC(=O)[C@H]([C@@H](C)O)NC(=O)[C@@H]2CCCN2C(=O)[C@@H]2CCCN2C1=O` [Compound 37] (Hexanoyl-CPPTQ[1Nal][β3hC]-{NH(4-picolyl)}; linker 1-7 via mXylylene) are 4.67 nM and more than 10000 nM.
For `CCCCCC(=O)N[C@H]1CSCc2cccc(c2)CSC[C@@H](CC(=O)NC23CC(C2)C3)NC(=O)[C@H](Cc2cccc3ccccc23)NC(=O)[C@H](CCC(N)=O)NC(=O)[C@H]([C@@H](C)O)NC(=O)[C@@H]2CCCN2C(=O)[C@@H]2CCCN2C1=O` [Compound 38] (Hexanoyl-CPPTQ[1Nal][β3hC]-X3; linker 1-7 via mXylylene) the same measures were 4.12 nM and more than 10000 nM.
Consider `CCCC[C@H](N)C(=O)N[C@H]1CSCc2cccc(c2)CSC[C@@H](CC(=O)O)NC(=O)[C@H](Cc2cccc3ccccc23)NC(=O)[C@H](CCC(N)=O)NC(=O)[C@H]([C@@H](C)O)NC(=O)[C@@H]2CCCN2C(=O)[C@@H]2CCCN2C1=O` [Compound 39] (H-[Nle]CPPTQ[1Nal][β3hC]-OH; linker 2-8 via mXylylene), for which the IC50 in data set [2] was 5.31 nM; in data set [3], more than 10000 nM.
For the compound `CCCCCC(=O)N[C@H]1CSCc2cc(CSCCNC(=O)CN3CCN(CC(=O)O)CCN(CC(=O)O)CCN(CC(=O)O)CC3)cc(c2)CSC[C@@H](C(=O)O)NC(=O)[C@H](Cc2ccccc2)NC(=O)[C@H](CCC(N)=O)NC(=O)[C@H]([C@@H](C)O)NC(=O)[C@@H]2CCCN2C(=O)[C@@H]2CCCN2C1=O` [^177Lu-3BP-3554, metal not drawn, reference compound], the Blood came out at 0.07 ID %/g in data set [4] (4 h); 0.02 ID %/g in data set [4] (8 h); 0.01 ID %/g in data set [4] (24 h); 0.0038 ID %/g in data set [4] (72 h); 0.0091 ID %/g in data set [4] (168 h). In addition, the Kidney is reported as 6.65 ID %/g in data set [4] (4 h); 6.37 ID %/g in data set [4] (8 h); 2.92 ID %/g in data set [4] (24 h); 0.86 ID %/g in data set [4] (72 h); 0.16 ID %/g in data set [4] (168 h). In addition, the Tumor is reported as 21.21 ID %/g in data set [4] (4 h); 18.42 ID %/g in data set [4] (8 h); 10.37 ID %/g in data set [4] (24 h); 5.05 ID %/g in data set [4] (72 h); 1.52 ID %/g in data set [4] (168 h).

The values above are taken from patent EP4653451A1, “POLYPEPTIDE COMPOUND AND USE THEREOF” (Chengdu New Radiomedicine Technology Co., Ltd., priority 2023, dated 2024).
